Consider five compounds from ChEMBL document CHEMBL1201862, “PubChem BioAssay data set” (2004).

Calls of active or inactive are those of the source. Unless noted, the rule behind the calls is not given here. Where only a bound is given, the exact number is not on record here.

Format in all cases: functional
The target in test [1] is ADP-ribosylation factor GTPase-activating protein 1 (Rattus norvegicus, UniProt Q62848). Kind of test: Fluorescence polarization-based biochemical high throughput dose response screening assay to identify inhibitors of ADP-ribosylation factor GTPase activating protein 1 (ARFGAP1). A general note: Polarisation of emitted light reports the rotation of a fluorescent probe.
Chain of ADP-ribosylation factor GTPase-activating protein 1 (Q62848 whole entry): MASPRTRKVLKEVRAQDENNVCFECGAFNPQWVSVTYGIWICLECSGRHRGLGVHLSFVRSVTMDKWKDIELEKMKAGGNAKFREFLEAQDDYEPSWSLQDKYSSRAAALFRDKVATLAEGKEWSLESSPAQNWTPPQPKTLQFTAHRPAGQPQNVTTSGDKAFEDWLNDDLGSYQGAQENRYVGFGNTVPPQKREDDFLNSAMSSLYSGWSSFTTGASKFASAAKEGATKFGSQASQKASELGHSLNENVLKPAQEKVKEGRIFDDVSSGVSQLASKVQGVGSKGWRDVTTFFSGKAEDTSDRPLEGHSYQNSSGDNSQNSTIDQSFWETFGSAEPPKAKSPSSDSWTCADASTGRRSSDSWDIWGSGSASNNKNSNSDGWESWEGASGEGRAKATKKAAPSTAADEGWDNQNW

Test [2] concerns the target Platelet-activating factor acetylhydrolase (Mus musculus, UniProt Q60963). The test is described as follows: Late stage assay provider results from the probe development effort to identify inhibitors of pPAFAH: fluorescence-based dose-response biochemical gel-based competitive Activity-Based Protein Profiling (ABPP) assay for SAR compounds.
The target in test [3] is T1, Low molecular weight phosphotyrosine protein phosphatase (Homo sapiens, UniProt P24666).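 Also: Dose-response confirmation assay measuring inhibition of LMPTP enzyme activity by fluorescence intensity read-out.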
T1 sequence (P24666 whole entry): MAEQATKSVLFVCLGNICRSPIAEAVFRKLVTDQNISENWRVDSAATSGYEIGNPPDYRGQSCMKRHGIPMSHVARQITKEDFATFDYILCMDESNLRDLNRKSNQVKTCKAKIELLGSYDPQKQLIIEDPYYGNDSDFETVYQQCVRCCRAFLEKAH
As to conditions: read-out: IC50_Mean.

Test [4] addresses Botulinum neurotoxin type F (Clostridium botulinum, UniProt P30996). Kind of test: High-throughput multiplex microsphere dose response for inhibitors of toxin protease, specifically Botulinum neurotoxin light chain F protease, compounds from Cherry Pick 02. The settings on record: read-out: EC50_MICROM.
In test [5] the target is ATP-dependent translocase ABCB1 (Homo sapiens, UniProt P08183). The test is described as follows: ABCB1 efflux pump inhibitor potency, dose response, Jurkat-DNR cells, JC-1, flow cytometry (AID 1689). A general note: Flow cytometry measures light scatter and fluorescence of single cells or particles in a stream.
Chain of ATP-dependent translocase ABCB1 (P08183 whole entry): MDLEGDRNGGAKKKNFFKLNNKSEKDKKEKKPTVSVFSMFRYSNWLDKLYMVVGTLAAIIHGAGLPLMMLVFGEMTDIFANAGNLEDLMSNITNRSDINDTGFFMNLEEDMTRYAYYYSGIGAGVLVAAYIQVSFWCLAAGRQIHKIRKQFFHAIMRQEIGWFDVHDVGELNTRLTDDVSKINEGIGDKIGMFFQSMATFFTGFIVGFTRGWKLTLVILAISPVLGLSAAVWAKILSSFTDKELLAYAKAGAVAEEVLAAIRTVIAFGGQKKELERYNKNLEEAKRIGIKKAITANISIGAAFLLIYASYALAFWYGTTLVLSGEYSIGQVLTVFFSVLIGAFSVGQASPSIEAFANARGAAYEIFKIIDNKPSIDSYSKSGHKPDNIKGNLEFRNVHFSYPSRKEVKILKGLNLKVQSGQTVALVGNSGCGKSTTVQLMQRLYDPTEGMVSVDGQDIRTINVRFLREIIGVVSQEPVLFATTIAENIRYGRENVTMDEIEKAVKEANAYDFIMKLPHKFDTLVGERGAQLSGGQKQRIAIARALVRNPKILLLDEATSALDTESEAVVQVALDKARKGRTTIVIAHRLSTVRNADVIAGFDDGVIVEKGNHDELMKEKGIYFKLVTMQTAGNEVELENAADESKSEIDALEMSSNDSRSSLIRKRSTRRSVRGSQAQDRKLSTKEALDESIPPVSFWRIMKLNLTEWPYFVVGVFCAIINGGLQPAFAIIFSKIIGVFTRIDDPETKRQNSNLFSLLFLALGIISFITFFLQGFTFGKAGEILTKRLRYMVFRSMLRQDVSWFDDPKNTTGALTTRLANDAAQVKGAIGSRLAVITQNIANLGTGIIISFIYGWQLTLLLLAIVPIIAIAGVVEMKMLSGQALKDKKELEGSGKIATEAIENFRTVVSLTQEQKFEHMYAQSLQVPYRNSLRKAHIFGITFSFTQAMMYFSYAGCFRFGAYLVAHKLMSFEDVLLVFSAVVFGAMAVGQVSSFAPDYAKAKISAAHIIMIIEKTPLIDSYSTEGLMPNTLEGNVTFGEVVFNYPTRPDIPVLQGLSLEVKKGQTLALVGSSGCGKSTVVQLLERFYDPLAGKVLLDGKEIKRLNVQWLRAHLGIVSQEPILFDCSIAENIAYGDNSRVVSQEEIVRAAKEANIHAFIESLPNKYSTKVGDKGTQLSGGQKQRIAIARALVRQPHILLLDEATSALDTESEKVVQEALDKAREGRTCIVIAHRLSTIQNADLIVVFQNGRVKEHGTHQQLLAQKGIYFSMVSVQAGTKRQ
Test [6] concerns the target Broad substrate specificity ATP-binding cassette transporter ABCG2 (Homo sapiens, UniProt Q9UNQ0). Kind of test: ABCG2 efflux pump inhibitors, dose response, Ig-MXP3 cells, flow cytometry (AID 1690).
In test [7] the target is Arf-GAP with SH3 domain, ANK repeat and PH domain-containing protein 1 (Homo sapiens, UniProt Q9ULH1).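 Also: biochemical fluorescence polarization dose–response screen measuring inhibition of ASAP1; ASAP1 GAP domain stimulating GTP hydrolysis by truncated human ARF1.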
Chain of Arf-GAP with SH3 domain, ANK repeat and PH domain-containing protein 1 (Q9ULH1 whole entry, the tested form may be a part): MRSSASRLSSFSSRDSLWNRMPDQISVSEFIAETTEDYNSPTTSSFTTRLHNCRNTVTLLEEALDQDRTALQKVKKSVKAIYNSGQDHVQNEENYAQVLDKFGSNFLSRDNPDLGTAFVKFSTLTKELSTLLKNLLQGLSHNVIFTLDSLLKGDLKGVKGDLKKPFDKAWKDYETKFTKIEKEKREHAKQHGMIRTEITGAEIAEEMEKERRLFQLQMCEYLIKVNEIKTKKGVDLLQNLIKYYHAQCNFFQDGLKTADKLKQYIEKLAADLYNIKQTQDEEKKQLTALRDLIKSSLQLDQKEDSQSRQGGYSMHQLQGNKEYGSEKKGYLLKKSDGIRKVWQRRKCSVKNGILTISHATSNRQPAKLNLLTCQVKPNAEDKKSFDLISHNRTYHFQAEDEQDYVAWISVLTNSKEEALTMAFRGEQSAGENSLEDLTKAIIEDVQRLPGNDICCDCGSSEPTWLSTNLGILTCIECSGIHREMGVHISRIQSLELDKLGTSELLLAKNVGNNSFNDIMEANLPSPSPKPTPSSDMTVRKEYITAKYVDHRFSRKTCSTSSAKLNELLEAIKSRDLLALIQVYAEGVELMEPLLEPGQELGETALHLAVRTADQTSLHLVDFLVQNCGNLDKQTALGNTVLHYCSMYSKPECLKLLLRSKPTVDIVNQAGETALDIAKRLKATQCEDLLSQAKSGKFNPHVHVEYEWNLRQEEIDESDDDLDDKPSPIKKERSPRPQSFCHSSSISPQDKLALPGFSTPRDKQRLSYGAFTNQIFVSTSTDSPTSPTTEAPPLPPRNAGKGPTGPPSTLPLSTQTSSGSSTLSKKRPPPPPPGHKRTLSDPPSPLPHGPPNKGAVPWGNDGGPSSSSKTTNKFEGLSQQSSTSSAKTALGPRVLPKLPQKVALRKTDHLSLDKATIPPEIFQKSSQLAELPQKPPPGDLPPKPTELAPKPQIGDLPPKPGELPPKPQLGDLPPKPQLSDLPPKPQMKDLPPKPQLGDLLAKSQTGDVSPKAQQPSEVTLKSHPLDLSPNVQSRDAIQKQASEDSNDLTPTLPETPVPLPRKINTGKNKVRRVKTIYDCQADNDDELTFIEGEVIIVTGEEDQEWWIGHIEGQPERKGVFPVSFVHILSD

Chain of Broad substrate specificity ATP-binding cassette transporter ABCG2 (Q9UNQ0 whole entry, the tested form may be a part): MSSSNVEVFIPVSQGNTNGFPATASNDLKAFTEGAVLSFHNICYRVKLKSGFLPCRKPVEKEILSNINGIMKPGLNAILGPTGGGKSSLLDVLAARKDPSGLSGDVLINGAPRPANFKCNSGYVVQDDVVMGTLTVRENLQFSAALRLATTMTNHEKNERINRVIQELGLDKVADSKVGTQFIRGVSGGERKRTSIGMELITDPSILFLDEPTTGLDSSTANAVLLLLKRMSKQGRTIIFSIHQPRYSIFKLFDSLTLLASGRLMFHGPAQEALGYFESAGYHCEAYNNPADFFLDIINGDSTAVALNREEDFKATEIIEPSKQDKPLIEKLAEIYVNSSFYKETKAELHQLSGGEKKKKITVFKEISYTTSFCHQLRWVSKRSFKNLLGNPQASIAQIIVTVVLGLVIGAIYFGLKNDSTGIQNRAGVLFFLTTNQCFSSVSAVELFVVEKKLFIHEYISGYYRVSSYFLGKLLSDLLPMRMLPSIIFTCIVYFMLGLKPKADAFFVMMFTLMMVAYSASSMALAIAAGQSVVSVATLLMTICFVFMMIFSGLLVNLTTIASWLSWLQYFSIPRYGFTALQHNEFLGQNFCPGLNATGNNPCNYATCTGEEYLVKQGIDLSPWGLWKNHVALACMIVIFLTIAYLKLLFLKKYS
Chain of Platelet-activating factor acetylhydrolase (Q60963 whole entry): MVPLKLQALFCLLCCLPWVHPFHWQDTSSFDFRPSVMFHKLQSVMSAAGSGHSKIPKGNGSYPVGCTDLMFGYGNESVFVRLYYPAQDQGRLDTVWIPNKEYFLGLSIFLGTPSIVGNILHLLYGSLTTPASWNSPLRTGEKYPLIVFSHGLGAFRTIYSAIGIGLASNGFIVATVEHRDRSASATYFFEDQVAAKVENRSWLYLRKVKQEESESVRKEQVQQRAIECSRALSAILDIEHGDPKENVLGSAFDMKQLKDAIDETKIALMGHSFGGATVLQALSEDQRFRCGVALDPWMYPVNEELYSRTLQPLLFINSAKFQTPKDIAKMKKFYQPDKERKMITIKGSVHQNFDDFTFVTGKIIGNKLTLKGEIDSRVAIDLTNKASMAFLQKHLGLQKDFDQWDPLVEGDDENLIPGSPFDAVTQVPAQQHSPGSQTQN
Chain of Botulinum neurotoxin type F (P30996 1-436 limits assumed): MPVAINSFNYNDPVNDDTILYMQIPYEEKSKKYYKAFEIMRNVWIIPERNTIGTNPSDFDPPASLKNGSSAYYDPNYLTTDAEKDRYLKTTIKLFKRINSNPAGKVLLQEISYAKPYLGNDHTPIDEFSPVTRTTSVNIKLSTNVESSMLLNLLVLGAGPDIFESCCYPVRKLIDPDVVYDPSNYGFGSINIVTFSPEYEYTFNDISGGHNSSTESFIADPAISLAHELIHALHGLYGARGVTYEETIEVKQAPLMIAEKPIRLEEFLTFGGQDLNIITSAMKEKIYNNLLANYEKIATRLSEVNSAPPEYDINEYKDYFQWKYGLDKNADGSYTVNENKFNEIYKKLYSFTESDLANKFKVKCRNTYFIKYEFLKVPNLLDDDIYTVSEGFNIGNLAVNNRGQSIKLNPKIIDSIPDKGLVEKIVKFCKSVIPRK

As for `COc1ccc(-n2c(=O)c3c4c(sc3n3cnnc23)CC(C)CC4)cc1` (configuration not stated), the IC50 in test [1] was 23.1 µM (inactive). Take `Cc1cc(N2CCN(C(=O)Oc3ccc([N+](=O)[O-])cc3)CC2)c2ccccc2n1`: the IC50 in test [2] was 179 nM (active); in test [3], 25.4 µM (inactive).

With `COc1ccc(C(CNC(=O)c2ccc(OC)c(S(=O)(=O)N3CCCC3)c2)N2CCCC2)cc1` (configuration not stated), the EC50 in test [4] is > 20 µM (inactive). For `CCOC(=O)c1cccc(NC(=O)c2cnc3ccccc3n2)c1`, the EC50 in test [5] was 30.7 µM (inactive); in test [6] it was 11.8 µM (active).

For the compound `CC(=O)c1cccc(NC(=O)CSc2ccc(-c3ccc4c(c3)OCO4)nn2)c1`, the IC50 in test [7] was 33.9 µM (inactive).
